The values below come from US20030161893A1, “PTPase inhibitors and methods of using the same” (priority 2001, published 2003).

SMILES strings stand for the structures.

One assay has as its target T1, PRL-3 (Homo sapiens, UniProt O75365).
T1 construct: cDNAs of human PRL-1, PRL-2 and PRL-3 coding region were derived by RT-PCR from H9 cells; made in house; host or cells: DH5a bacteria (E. coli)
The assay is described as follows: In vitro PTPase assay, recombinant PRL-3. It is filed as biochemical. The source says: Sodium stibogluconate, suramin, sodium orth ovanadate and GST fusion protein of SHP-1 have been described previously (Pathak et al., J. Imumol. 167, 3391 (2001)). Meglumine antimonate was obtained from Aventis. cDNAs of human PRL-1, PRL-2 and PRL-3 coding region were derived by RT-PCR from H9 cells (Safai, et al., Lancet 1, 1438 (1984)) and inserted in frame into the pGEX vector. cDNA of PRL-1R86 was generated by recombinant DNA technique using PRL-1 cDNA as template following established procedures (Jiao, et al., Mol. Cell. Biol. 16, 6985 (1996)). GST fusion proteins of the PRL phosphatases were prepared from DH5a bacteria transformed with the pGEX fusion protein constructs as described previously (Yi, et al., Mol. Cell. Biol. 12, 836 (1992)). cDNAs encoding the PRLs tagged at the N-termini with the Flag epitope (Castrucci, et al., J. Virol. 66, 4647 (1992)) were generated via recombinant DNA technique, sequenced to confirm their identities and cloned into the pBabepuro vector (Yang, et al., Blood 91, 3746 (1998)). Anti-Flag monoclonal antibody (M2, Sigma) was purchased from a commercial source. A synthetic phosphotyrosine peptide (Arg-Arg-Leu-Ile-Glu-Asp-Ala-Gle-Tyr-Ala-Ala-Arg-Gly (SEQ ID NO: 3), wherein the tyrosine is phosphorylated; UBI) and DiFMUP (6, 8-difluoro-4-methylumbelliferyl phosphate, Molecular Probes) were purchased as substrates for PTPase assays.
In vitro PTPase assays were used to determine the effects of compounds on recombinant PTPases, following established procedures using a synthetic phosphotyrosine peptide or DiFMUP as the substrate (Pathak et al., J. Imumol. 167, 3391 (2001)). Briefly, individual PTPases (0.1 μg/reaction) in 50 μL of PTPase buffer (50 mM Tris, pH 7.4) were incubated at 22° C. for 10 minutes or as indicated in the absence or presence of inhibitory compounds. Substrates (0.2 mM phosphotyrosine peptide) were then added and allowed to react at 22° C. for 18 hrs. PTPase activity of individual reactions was measured by adding 100 μL of malachite green solution (UBI) and then quantifying the amounts of free phosphate cleaved by the PTPase from the peptide substrate by spectrometry (OD660 nm). PTPase assays using DiFMUP as a substrate were conducted following a previously described procedure (Matter, et al., Biochem. Biophys. Res. Comm. 283, 1061 (2001)). Relative PTPase activities were calculated based on the formula: (PTPase activity in the presence of an inhibitory compound/PTPase activity in the absence of the compound)×100%. To assess the reversibility of PTPase inhibition, GST fusion proteins of the PTPases bound on glutathione beads (Pharmacia) were pre-incubated with cold Tris buffer (50 mM Tris, pH 7.0) or Tris buffer containing the inhibitor at 4° C. for 30 minutes. The beads were then washed three times in cold Tris buffer or not washed prior to subjecting to in vitro PTPase assays.

The test system of another assay is U251 cells. As to the kind of experiment: Cell growth assay (MTT), U251 glioma cells. It is filed as cell-based, human. Particulars: 100 μg/ml, day 6. Here is the method: NIH3T3 (Yi, et al., Blood 85, 87 (1995)), WM9 (Forsberg, et al., Proc. Nat. Acad Sci. USA 90, 393 (1993)), DU145 (Mickey, et al., Cancer Res. 37, 4049 (1977)), LoVo (Drewinko, et al., Cancer Res. 36, 467 (1976)), HEY (Buick, et al., Cancer Res. 45, 3668 (1985)), U251 (Yoshida, et al., Cancer 50, 410 (1982)), A549 (Giard, et al., J. Natl. Cancer Inst. 51, 1417 (1973)) and SK-N-SH (Helson, et al., Cancer Res. 35, 2594 (1975)) cell lines have been described and were cultured in RPMI 1640 supplemented with 10% fetal calf serum (FCS). For measurement of sodium stibogluconate effects on cell growth in vitro, cells were cultured in the absence (−) or presence (+) of various amounts of sodium stibogluconate for 6 days with viable cells quantified by MTT assays (Mosmann, J. Imunol. Methods 65, 55 (1983)). Percentages of growth inhibition by sodium stibogluconate were calculated (+/−×%).

In the next assay the test system is WM9 cells. As to the kind of experiment: Cell proliferation assay (MTT), WM9 melanoma cells. It is filed as cell-based, human. On the procedure:
For cell proliferation assays, cells were grown in 10% FCS culture medium containing various amounts of IFNs and/or sodium stibogluconate in 96 well plates and cultured at 37° C. for 3 or 6 days as indicated. The numbers of viable cells in proliferation assays were determined by MTT assays as described in Phatak et al., J. Immunol. 167, 3391 (2001).
Dose response curves were generated for each drug alone, and also the combinations. Median effect plots were generated for IFNs alone, sodium stibogluconate alone, and the combination. The combination index (CI) was determined and plotted vs. fraction affected (FA). Data were analyzed in both modes, mutually exclusive and mutually nonexclusive. The interaction between two mutually nonexclusive drugs is described by the Equation CI=D1/D×1+D2/D×2+D1D2/D×1D×2, where D×1 and D×2 are the doses of drug 1 and drug 2 that are required to inhibit growth×%. […] When CI<1, drugs are synergistic, when CI=1, drugs are additive, and when CI>1, drugs are antagonistic.

The subject of the next assay is Stat1. As to the kind of experiment: IFN-alpha-induced Stat1 tyrosine phosphorylation, DU145 cells. It is filed as cell-based, human. As to conditions: DU145, 5 hours post-stimulation. Here is the method:
For induction of Stat1 tyrosine phosphorylation by IFN-alpha in the absence or presence of sodium stibogluconate, cells grown in 10% FCS RPMI 1640 medium at 37° C. were stimulated with IFN-alpha (50 u/ml) for various time points and treated with or without sodium stibogluconate for 5 minutes prior to termination by lysing the cells in cold lysis buffer (1% NP-40; 50 mM Tris, pH 7.4; 100 mM NaCl; 1 mM EDTA, 10% glycerol, 10 mM sodium molybdic acid and 4 mM AEBSF).
Cell lysates were prepared by lysing cells in cold lysis buffer for 30 min and cleared by centrifuging at 14,000 rpm at 4° C. for 15 min. For SDS-PAGE, cell lysates were mixed with equal volume of 2×SDS-PAGE sample buffer, heated at 90° C. for 5 min and separated in 10% SDS-PAGE gels. Cellular proteins in SDS-PAGE gels were transferred to nitrocellulose membrane (Schleicher & Schuell, Keene, N.H.), blocked in 5% milk, probed with antibodies and detected by using an enhanced chemiluminescence kit (ECL, Amersham, Arlington Heights, Ill.).

T1 sequence (O75365 whole entry): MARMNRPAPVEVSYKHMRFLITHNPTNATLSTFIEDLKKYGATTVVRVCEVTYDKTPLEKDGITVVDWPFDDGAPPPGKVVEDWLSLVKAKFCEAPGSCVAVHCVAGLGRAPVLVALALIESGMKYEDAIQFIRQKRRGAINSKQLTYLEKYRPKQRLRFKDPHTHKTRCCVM

Consider `O.O.O.O.O.O.O.O.O.O=C([O-])[C@@H]1[O][Sb]2([O-])([O][Sb]34([OH])[O][C@H]([C@H](O)CO)[C@H]([O]3)[C@H](C(=O)[O-])[O]4)[O][C@H]([C@H](O)CO)[C@@H]1[O]2.[Na+].[Na+].[Na+]` [sodium stibogluconate], for which the “inactivation of PRL-3 with prolonged pre-incubation” value at PRL-3 (10 μg/ml, pre-incubation 30 or 60 minutes) was “nearly complete inactivation”. In addition, the “inhibition of PRL-3 with DiFMUP substrate” value on PRL-3 (DiFMUP, comparable conditions) is on record as “also detected”. Moreover, the “reversibility of PRL-3 inhibition by washing” value on PRL-3 (PRL-3 bound to glutathione beads) was “not relieved by a washing process”. Besides, the “cell killing, U251” value in the assay on U251 cells was “near-complete cell killing”. In addition, in the assay on WM9 cells (50 μg/ml and 100 μg/ml, day 6 culture), the “killing of WM9 cells, single agent” value is recorded as “killed all cells”. Moreover, the “IFN-alpha-induced growth inhibition of WM9 in presence of drug” value in the assay on WM9 cells (day 6) is “augmented”. For the same compound, the “IFN-alpha- and IFN-beta-induced growth inhibition of WM9 in presence of drug” value with WM9 cells (day 6, most dramatic at 12.5-50 μg/ml and IFNs 12.5-50 units/ml) was “greatly enhanced”. The “IFN-alpha-induced Stat1 tyrosine phosphorylation” value in the assay with Stat1 is recorded as “Enhanced”.
